Measured values: ChEMBL document CHEMBL1157485, “Studies on the structure-activity relationship of bicifadine analogs as monoamine transporter inhibitors” (Bioorg Med Chem Lett, 2008)
Calls of active or inactive are those of the source. No cut-off for these calls is given here.

Columns and labels:
Transporter = Transporter (Rattus norvegicus, UniProt Q63380); assay: Inhibition of norepinephrine uptake at NET in rat brain synaptosome; format: tissue-based
[1] = target: Sodium-dependent serotonin transporter (Rattus norvegicus, UniProt P31652); assay: Inhibition of serotonin uptake at SERT in rat brain synaptosome; format: tissue-based
Chain of Sodium-dependent serotonin transporter (P31652 whole entry): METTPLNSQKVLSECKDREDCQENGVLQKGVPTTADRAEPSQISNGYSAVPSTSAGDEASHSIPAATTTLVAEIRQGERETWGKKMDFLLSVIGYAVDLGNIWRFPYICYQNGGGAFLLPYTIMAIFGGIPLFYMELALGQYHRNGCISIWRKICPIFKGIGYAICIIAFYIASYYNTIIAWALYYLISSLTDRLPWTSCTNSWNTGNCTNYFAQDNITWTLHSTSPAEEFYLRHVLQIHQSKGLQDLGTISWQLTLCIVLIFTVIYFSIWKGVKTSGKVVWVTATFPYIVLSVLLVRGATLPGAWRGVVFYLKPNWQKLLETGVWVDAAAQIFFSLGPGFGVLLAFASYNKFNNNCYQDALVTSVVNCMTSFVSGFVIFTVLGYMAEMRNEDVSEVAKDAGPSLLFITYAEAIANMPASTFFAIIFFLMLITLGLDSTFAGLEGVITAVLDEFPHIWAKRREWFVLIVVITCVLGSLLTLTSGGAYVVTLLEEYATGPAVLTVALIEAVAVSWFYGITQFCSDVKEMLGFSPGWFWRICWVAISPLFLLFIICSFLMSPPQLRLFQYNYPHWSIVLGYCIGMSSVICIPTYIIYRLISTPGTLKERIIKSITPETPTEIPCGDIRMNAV

[2] = target: Sodium-dependent dopamine transporter (Rattus norvegicus, UniProt P23977); assay: Inhibition of dopamine uptake at cloned DAT in rat brain synaptosome; format: tissue-based
Chain of Sodium-dependent dopamine transporter (P23977 whole entry): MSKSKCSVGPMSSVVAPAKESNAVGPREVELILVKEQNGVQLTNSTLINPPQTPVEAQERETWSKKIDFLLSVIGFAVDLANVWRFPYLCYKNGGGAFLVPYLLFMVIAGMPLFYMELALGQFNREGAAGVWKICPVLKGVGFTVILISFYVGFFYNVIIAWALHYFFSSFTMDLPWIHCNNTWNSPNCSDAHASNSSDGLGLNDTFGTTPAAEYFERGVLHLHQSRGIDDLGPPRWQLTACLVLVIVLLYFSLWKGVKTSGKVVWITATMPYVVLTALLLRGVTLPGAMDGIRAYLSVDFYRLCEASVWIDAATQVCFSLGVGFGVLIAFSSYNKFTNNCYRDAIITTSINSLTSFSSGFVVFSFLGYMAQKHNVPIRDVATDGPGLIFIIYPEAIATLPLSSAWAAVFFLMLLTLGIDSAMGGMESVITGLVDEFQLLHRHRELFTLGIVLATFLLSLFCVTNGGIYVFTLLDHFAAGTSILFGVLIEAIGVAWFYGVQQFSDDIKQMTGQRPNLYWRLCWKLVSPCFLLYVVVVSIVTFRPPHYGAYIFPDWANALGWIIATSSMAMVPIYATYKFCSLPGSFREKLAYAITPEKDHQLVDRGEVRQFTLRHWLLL

Mus musculus [3] = assay: Antinociceptive activity in formalin-treated mouse model of persistent pain assessed as reduction in licking time at 60 mg/kg; format: functional; parameters: scale not given: the % may be the effect or the level left
[4] = Apparent permeability across human CaCo2 cells; format: ADME, cell-based; conditions: Caco-2
[5] = Efflux ratio in human CaCo2 cells; format: ADME, cell-based; conditions: Caco-2
Mus musculus [6] = assay: Antinociceptive activity in formalin-treated mouse model of persistent pain assessed as reduction in number of hind paws flinches at 30 mg/kg; format: functional; parameters: scale not given: the % may be the effect or the level left

Chain of Transporter (Q63380 whole entry): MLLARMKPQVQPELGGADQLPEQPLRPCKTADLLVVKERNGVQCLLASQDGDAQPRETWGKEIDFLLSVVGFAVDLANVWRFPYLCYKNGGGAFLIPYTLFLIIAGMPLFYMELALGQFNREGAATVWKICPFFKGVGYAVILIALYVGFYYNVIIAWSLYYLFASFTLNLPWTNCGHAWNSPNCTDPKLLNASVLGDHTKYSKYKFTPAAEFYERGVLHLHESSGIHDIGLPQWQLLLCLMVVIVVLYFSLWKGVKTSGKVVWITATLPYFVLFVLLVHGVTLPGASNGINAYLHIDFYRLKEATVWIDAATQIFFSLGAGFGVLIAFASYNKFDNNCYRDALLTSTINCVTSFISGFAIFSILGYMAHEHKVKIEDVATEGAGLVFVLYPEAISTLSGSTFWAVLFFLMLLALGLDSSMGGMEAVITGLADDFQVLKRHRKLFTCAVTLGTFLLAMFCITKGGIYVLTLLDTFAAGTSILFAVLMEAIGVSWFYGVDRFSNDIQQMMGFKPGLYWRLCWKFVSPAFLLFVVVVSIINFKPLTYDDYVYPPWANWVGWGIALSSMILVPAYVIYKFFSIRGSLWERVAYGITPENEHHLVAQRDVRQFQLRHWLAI

| SMILES | IC50 (Transporter) [nM] | IC50 [1] [nM] | IC50 [2] [nM] | Activity (Mus musculus [3]) | Papp [4] [×10⁻⁶ cm/s] | efflux ratio [5] | Activity (Mus musculus [6]) [%] |
| --- | --- | --- | --- | --- | --- | --- | --- |
| Clc1cc(Cl)c(C23CNCC2C3)s1 (stereo not given) | 5300 | 4200 | > 10000 |  |  |  |  |
| FC(F)(F)c1ccc(C23CNCC2C3)s1 (stereo not given) | 3100 | 190 | > 10000 |  |  |  |  |
| Clc1ccc(C23CNCC2C3)s1 (stereo not given) | 130 | 190 | 3300 |  |  |  |  |
| CN1CC2CC2(c2cccs2)C1 (stereo not given) | 1600 | 6300 | > 10000 |  |  |  |  |
| c1ccc2c(C34CNCC3C4)csc2c1 (stereo not given) | 220 | 73 | 780 |  |  |  |  |
| Cc1ccc(C23CNCC2C3)cc1 (stereo not given) [BICIFADINE] |  |  |  | 89% |  |  |  |
| C[C@@H]1[C@H]2CNC[C@@]12c1ccc(Cl)c(Cl)c1 (relative stereo) | 29 | 190 | 400 |  |  |  |  |
| c1cnc2ccc(C34CNCC3C4)cc2c1 (stereo not given) | 1400 | 640 | 3900 |  |  |  |  |
| CC1(C)C2CNCC21c1ccccc1 (stereo not given) | 7200 | 1800 | > 10000 |  |  |  |  |
| c1csc(C23CNCC2C3)c1 (stereo not given) | 130 | 4500 | 7500 |  |  |  |  |
| Brc1ccc(C23CNCC2C3)s1 (stereo not given) | 190 | 140 | 2400 |  |  |  |  |
| O=C1NCC2CC12c1cccs1 (stereo not given) | > 10000 | > 10000 | > 10000 |  |  |  |  |
| Clc1ccc([C@@]23CNC[C@@H]2C3)s1 | 590 | 1300 | 2500 |  |  |  |  |
| Clc1ccc([C@]23CNC[C@H]2C3)s1 | 77 | 81 | 1500 |  |  |  |  |
| Brc1ccc([C@@]23CNC[C@@H]2C3)s1 | 340 | 380 | 8200 |  |  |  |  |
| FC12CNCC1(c1ccccc1)C2 (stereo not given) | 1800 | 2900 | > 10000 |  |  |  |  |
| C[C@H]1NC[C@@H]2C[C@@]21c1cccs1 (relative stereo) | 150 | 5800 | 8900 |  |  |  |  |
| c1cc2c(cc1[C@@]13CNC[C@@H]1C3)CCC2 | 2000 | 97 | > 10000 |  |  |  |  |
| c1ccc2cc(C34CNCC3C4)ccc2c1 (stereo not given) | 36 | 50 | 190 |  |  |  |  |

| SMILES | IC50 (Transporter) [nM] | IC50 [1] [nM] | IC50 [2] [nM] | Activity (Mus musculus [3]) | Papp [4] [×10⁻⁶ cm/s] | efflux ratio [5] | Activity (Mus musculus [6]) [%] |
| --- | --- | --- | --- | --- | --- | --- | --- |
| Cc1csc(C23CNCC2C3)c1 (stereo not given) | 6800 | > 10000 | > 10000 |  |  |  |  |
| c1csc([C@]23CNC[C@H]2C3)c1 | 92 | 1900 | 2400 |  | 17.6 | 0.7 | 40 |
| c1cc2c(cc1C13CNCC1C3)OCO2 (stereo not given) | 3500 | 1500 | > 10000 |  |  |  |  |
| c1ccc(C23CNCC2C3)cc1 (stereo not given) | 350 | 5200 | 2700 |  |  |  |  |
| c1ccc(-c2ccc(C34CNCC3C4)cc2)cc1 (stereo not given) | 360 | 160 | 2300 |  |  |  |  |
| Clc1ccc([C@@]23CNC[C@@H]2[C@H]3c2ccccc2)cc1Cl (relative stereo) | 34 | 350 | 360 |  |  |  |  |
| Fc1ccc2sc([C@]34CNC[C@H]3C4)cc2c1 | 67 | 33 | 420 |  |  |  |  |
| C[C@H]1NC[C@@]2(c3cccs3)C[C@@H]12 (relative stereo) | 320 | 7600 | 3400 |  |  |  |  |
| c1ccc([C@@H]2[C@H]3CNC[C@]32c2ccccc2)cc1 | 120 | 240 | 8700 |  |  |  |  |
| C[C@H]1[C@H]2CNC[C@]21c1ccc(Cl)c(Cl)c1 (relative stereo) | 500 | 200 | 500 |  |  |  |  |
| c1cc2c(cc1[C@@]13CNC[C@@H]1C3)CCO2 | 4800 | 610 | 9100 |  |  |  |  |
| c1csc([C@@]23CNC[C@@H]2C3)c1 | 150 | 4900 | 6200 |  |  |  |  |
| c1cc([C@@]23CNC[C@@H]2C3)cs1 | 300 | 6800 | 8200 |  |  |  |  |
| c1ccc2oc(C34CNCC3C4)cc2c1 (stereo not given) | 48 | 140 | 330 |  |  |  |  |
| Fc1ccc([C@]23CNC[C@H]2C3)s1 | 470 | 8100 | > 10000 |  |  |  |  |
| c1ccc2sc(C34CNCC3C4)cc2c1 (stereo not given) | 53 | 71 | 180 |  |  |  |  |
| C[C@@H]1NC[C@@]2(c3cccs3)C[C@@H]12 (relative stereo) | 560 | 6000 | 9500 |  |  |  |  |
| CCOc1ccccc1O[C@@H](c1ccccc1)[C@@H]1CNCCO1 |  |  |  | inactive |  |  |  |
